Laboratory results: patent publication US12533353B2, “Methods of treatment of cancer comprising CDC7 inhibitors” (CARNA BIOSCIENCES, INC., priority 2018, dated 2026)

Columns and labels:
[1] = tested on: Colo-205 tumor xenografts; assay: Rat Colo-205 colorectal xenograft efficacy; format: in vivo; conditions: for tumor growth inhibition: 5 days of 7-day cycle, Day 31
Description: The efficacy of a Cdc7 inhibitor (compound SRA141) as a monotherapy was tested in a rat xenograft model of colorectal cancer (CRC) (FIG. 7). Female Rowett nude rats were inoculated sub-cutaneously with 2×10^7 COLO-205 human colorectal carcinoma cells. All rats were gamma-irradiated (4Gy) 24 hours before tumor cell injection. The COLO-205 cells were injected in 0.2 mL PBS in 1:1 Matrigel®. Female The nude rats bearing Colo-205 tumor xenografts were orally administered (i) vehicle control (0.5% CMC-Na/1% Lutrol F-68) or (ii) SRA141 150 mg/kg once a day (QD) for 5 consecutive days of a 7-day cycle for 6 weeks or (iii) SRA141 75 mg/kg twice a day (BID) for 5 consecutive days of a 7-day cycle for 6 weeks (n=7 per treatment group). Tumor growth inhibition was calculated on Day 31, the final day all vehicle control animals remained on study. Tumor volume measurements and body weight measurements were taken biweekly.

MV-4-11 xenograft tumors = assay: MV-4-11 acute myeloid leukemia xenograft, SRA141 monotherapy; format: in vivo, mouse; conditions: for average tumor volume at day 21: 3 weeks; for tumor growth inhibition: Day 21
Description: The efficacy of a Cdc7 inhibitor (compound I-D, also named SRA141) alone as a monotherapy was tested in xenografts using an acute myeloid leukemia cell line, MV-4-11. Female BALB/c mice bearing MV-4-11 xenograft tumors were administered SRA141 at various doses. 60 female BALB/C mice aged 5-6 weeks were subcutaneously inoculated MV-4-11 tumor cells. Mice were inoculated with 5.0×10^6 cells (mixed with Matrigel® at a ratio of 1:1) per mouse. 32 mice were selected and randomized into 4 groups and were orally administered (i) vehicle control (0.2 M HCl/0.5% MC400) or (ii) SRA141 at 30 or 60 mg/kg BID for 3 weeks or (iii) SRA141 120 mg/kg QD for 3 weeks (n=8 per treatment group). The body weights of mice were recorded once per week before grouping and mice conditions were recorded daily during the treatment. After 21 days of dosing, mice were sacrificed for tumor weight measurement. Tumor growth inhibition was calculated on Day 21, the final day of the study.

[2] = tested on: CDK8 (STAT1, Ser727); CDK7 and 9 (RNA pol II, Ser2); LATS2 (YAP1, Ser127); MCL-1; assay: Cellular substrates of putative off-target kinases in Colo-205 cells; format: cell-based, human
Description: Colo-205 cells were treated with SRA141 (at concentrations between 0.033 and 3.3 μM) for 8 to 24 hours with subsequent assessment of the phosphorylation status of the downstream targets for Cdc7 (MCM2, Ser40/41 and Ser53), and the putative off-target kinases CDK8 (STAT1, Ser727); CDK7 and 9 (RNA pol II, Ser2); LATS2 (YAP1, Ser127) as well as the levels of MCL-1, known to be indirectly controlled by CDK9 (Gregory, 2015).

[3] = tested on: Colo-205 and SW620 cell populations; assay: High content imaging of cells in mitosis, 48 hours; format: cell-based
[4] = tested on: panel of 235 cancer cell lines; assay: CellTiter-Glo luminescent cell viability assay, 72-hour incubation; format: cell-based
Description: The concentration-dependent effect of SRA141 on cell viability was determined in a panel of 235 cancer cell lines, utilizing the CellTiter-Glo™ luminescence assay (Promega) with a 72-hour drug incubation period. The 50% inhibition concentration (IC50) was determined in the cancer cell lines using Cell Titer-Glo® luminescent cell viability assay after incubation with SRA141 at different concentrations.

[5] = tested on: HT-29 colorectal adenocarcinoma cells; assay: Gemcitabine growth inhibition alone or with SRA141, 96 hours; format: cell-based, human; conditions: SRA141 at 1.1 μM or 3.3 μM
Description: To confirm the efficacy of a Cdc7 inhibitor in combination with the replicative stress-inducing anti-neoplastic agent gemcitabine, human HT-29 colorectal adenocarcinoma cells were treated with increasing concentrations of gemcitabine (from 0.037 to 1 μM) for 96 hours.

[6] = In vitro metabolism in hepatocytes; format: in vitro ADME
From the text: Eleven metabolites were identified across species, of which 6 occurred in the human matrix. One human-specific metabolite was identified, but only at trace levels. The mouse, rat and dog hepatocyte metabolite profiles contained all the other human metabolites.

COLO-205 cells = assay: Cell cycle sensitivity, double thymidine block, flow cytometry; format: cell-based, human; conditions: 1 μM added at S or M phase
Description: The sensitivity to SRA141 treatment at the various phases of the cell cycle was determined in Colo-205 cells synchronized with double thymidine block. Upon block release, SRA141 (1 μM) was added as the cells reached either S or M phase.

[7] = Red blood cell partitioning; format: in vitro ADME; conditions: any species matrix
[8] = Absolute oral bioavailability; conditions: in vivo, free base suspension, fasted, range given for mouse, rat and dog together, read-out: absolute oral bioavailability (% F)
MV-4-11 tumor xenografts = assay: Rat xenograft model of AML (MV-4-11), SRA141 monotherapy; format: in vivo; conditions: 75 mg/kg
[9] = tested on: three AML cell lines (EOL-1, Molm-16 and MV-4-11) and three AML PDX models (AM5512, AM7440 and AM7577); assay: AML 3D cultures, summary over models; format: cell-based; conditions: five of the six models; read-out: IC50 range
Description: The activity of SRA141 was investigated in in vitro and ex vivo three-dimensional (3D) cultures prepared from three AML cell lines (EOL-1, Molm-16 and MV-4-11) and three AML PDX models (AM5512, AM7440 and AM7577), respectively. Tumor cultures were treated with SRA141 (0.08 to 33 μM) for 5 days.

SMILES: CCOC(=O)C1=C(NN2CCN(CC(F)(F)F)CC2)O/C(=C\c2c[nH]c3ncccc23)C1=O [SRA141]
- complete tumor regressions (no measurable tumor for 3 consecutive measurements) ([1]; 75 mg/kg BID): 4 of 7
- partial regression (tumor volume <50% of initial volume for 3 consecutive measurements) ([1]; 75 mg/kg BID): 1 of 7
- tumor growth inhibition ([1]; 75 mg/kg BID): 93%
- tumor growth inhibition ([1]; 150 mg/kg QD): 50%
- average relative body weight change (RCBW) at day 21 (MV-4-11 xenograft tumors; 30 mg/kg BID): 16.39%
- average tumor volume at day 21 (MV-4-11 xenograft tumors; 30 mg/kg BID oral): 655.68 mm^3
- tumor growth inhibition (MV-4-11 xenograft tumors; 30 mg/kg BID): 59%
- average relative body weight change (RCBW) at day 21 (MV-4-11 xenograft tumors; 60 mg/kg BID): 3.18%
- average tumor volume at day 21 (MV-4-11 xenograft tumors; 60 mg/kg BID oral): 300.77 mm^3
- tumor growth inhibition (MV-4-11 xenograft tumors; 60 mg/kg BID): 81%
- average relative body weight change (RCBW) at day 21 (MV-4-11 xenograft tumors; 120 mg/kg QD): 8.47%
- average tumor volume at day 21 (MV-4-11 xenograft tumors; 120 mg/kg QD oral): 530.83 mm^3
- tumor growth inhibition (MV-4-11 xenograft tumors; 120 mg/kg QD): 67%
- tolerability (MV-4-11 xenograft tumors; all treatments): tolerated with no significant body weight loss
- inhibition of STAT1, YAP1 and MCL-1 ([2]; 3.3 μM): Minimal inhibition
- phosphorylation status (or protein level of MCL-1) of off-target substrates ([2]; up to 1 μM): no significant change
- percent of cells in mitosis [3]: percent of cells in mitosis is greater in populations treated with SRA141 compared to other Cdc7 inhibitors
- activity in hematologic-derived cell lines ([4]; 59 hematologic cancer cell lines): Significant activity
- IC50 ([4]; solid tumor cell lines of bladder, sarcoma, colon and cecum, renal, head-and-neck, melanoma, gastric lineages): < 3000 nM
- effect of SRA141 addition on gemcitabine inhibition [5]: substantially reduced the inhibitory effects of gemcitabine
- metabolic stability ([6]; dog hepatocytes): favorable metabolic stability
- metabolic stability ([6]; rat hepatocytes): favorable metabolic stability
- sub-G1 (apoptotic) population by cell cycle phase of treatment (COLO-205 cells): accumulated as the cells progressed through M phase provided they were treated with SRA141 during the preceding S phase
- partition into red blood cells [7]: did not preferentially partition into red blood cells
- bioavailability [8]: 31 to 54%
- TGI, additional studies (MV-4-11 tumor xenografts; day 27 of treatment): 92%
- TGI, additional studies (MV-4-11 tumor xenografts; day 34 of treatment): 85%
- IC50 [9]: 150 to 1600 nM
